Test results: patent US12673038B2, “Antimycotic methoxyflavone and fluconazole combination for inhibiting cryptococcus” (Karl-Franzens-Universität Graz, priority 2019, dated 2026)
≈ marks a conversion by molar mass, not a printed value.

What was measured:
[1] = system: S. cerevisiae BY4741; experiment: Clonogenic survival assay (CFU plating); format: cell-based, Saccharomyces cerevisiae; conditions: 200 μM 5-MF, day 3 after treatment, untreated control 100%
Protocol: S. cerevisiae BY4741 cells were grown in SMD minimal media to mid-log phase and then treated with the indicated concentrations of 5-MF; control cells were treated with the same amount of solvent (DMSO). (A) Clonogenicity was assayed by plating 500 cells on YPD agar plates and colony forming units (CFUs) were counted to calculate survival rates. (B) Yeast cells were analyzed for cell death markers via AnnV/PI co-staining using flow cytometry. (C) The accumulation of reactive oxygen species was monitored by dihydrotethidium (DHE) to ethidium (Eth) conversion using flow cytometry. Assays in (A-C) were performed on day 3 after treatment. […] Data was analyzed by one-way ANOVA and corrected for multiple comparison using a Bonferroni post-hoc test. ns: not significant, * p<0.05, *** p<0.001, **** p<0.0001. […] Yeast strains were streaked on YPD agar plates and allowed to grow for two days at 28° C. or 30° C., plates were then stored for up to one week at 4° C. […] Survival upon treatment with substances or combinations was analyzed by plating serial dilutions of treated cultures onto YPD agar plates. Plates were incubated for two days at 28° C., colony forming units (CFUs) were counted and survival was calculated compared to the untreated control.

[2] = system: S. cerevisiae; experiment: MIC determination, CLSI protocol M27-A3, OD490; format: cell-based; conditions: Saccharomyces cerevisiae; S. cerevisiae planktonic growth, 50% reduction vs control, mean±SEM
Protocol: S. cerevisiae BY4741 cells were grown in SMD minimal media to mid-log phase and then treated with the indicated concentrations of 5-MF; control cells were treated with the same amount of solvent (DMSO). (A) Clonogenicity was assayed by plating 500 cells on YPD agar plates and colony forming units (CFUs) were counted to calculate survival rates. (B) Yeast cells were analyzed for cell death markers via AnnV/PI co-staining using flow cytometry. (C) The accumulation of reactive oxygen species was monitored by dihydrotethidium (DHE) to ethidium (Eth) conversion using flow cytometry. Assays in (A-C) were performed on day 3 after treatment. […] Data was analyzed by one-way ANOVA and corrected for multiple comparison using a Bonferroni post-hoc test. ns: not significant, * p<0.05, *** p<0.001, **** p<0.0001. […] The minimal inhibitory concentration (MIC) was determined following the standard Clinical and Laboratory Standards Institute (CLSI) protocol M27 (Rex JH, and Clinical and Laboratory Standards Institute (2008). Reference method for broth dilution antifungal susceptibility testing of yeasts: approved standard, 3rd ed. National Committee for Clinical Laboratory Standards, Wayne, PA) for yeast strains or the standard CLSI protocol […] […] After incubation, OD490 values were measured using 96-well plate reader and growth capacity was analyzed by setting the corresponding control to 100%. […]

[3] = system: C. albicans SC5314; experiment: MIC determination, CLSI protocol M27-A3, OD490; format: cell-based, Candida albicans; conditions: C. albicans SC5314, 50 μM 5-MF, untreated control 100%
[4] = system: C. glabrata BG2; experiment: MIC determination, CLSI protocol M27-A3, OD490; format: cell-based, Candida glabrata; conditions: Nakaseomyces glabratus; C. glabrata BG2 planktonic growth, mean±SEM
[5] = system: C. albicans SC5314 biofilms; experiment: Biofilm inhibition concentration (BIC), CTB staining; format: cell-based; conditions: Candida albicans, C. albicans SC5314 biofilm formation, mean±SEM, read-out: BIC-50
[6] = system: C. glabrata BG2 biofilms; experiment: Biofilm inhibition concentration (BIC), XTT staining; format: cell-based, Candida glabrata; conditions: Nakaseomyces glabratus, BG2BIOFILMS, C. glabrata BG2 biofilm formation, mean±SEM, read-out: BIC-50

COc1cccc2oc(-c3ccccc3)cc(=O)c12 [5-MF, 5-methoxyflavone] was tested, and the “yeast survival (clonogenic assay, CFUs)” value [1] was 31%, the MIC50 [2] was 90.6 ± 12.4 µM (≈ 22.9 µg/mL) and the “growth of planktonic cells compared to untreated cells” value [3] was “about 60%”. For the same molecule, the MIC50 [4] was 202 ± 35.6 µM (≈ 50.9 µg/mL), the IC50 [5] was 216 ± 26.6 µM and the IC50 [6] was 224 ± 15.6 µM.
